In the first assay the target is T1, Platelet-activating factor receptor (Homo sapiens, UniProt P25105). As to the kind of experiment: Binding affinity against platelet activating factor.
T1 sequence (P25105 whole entry): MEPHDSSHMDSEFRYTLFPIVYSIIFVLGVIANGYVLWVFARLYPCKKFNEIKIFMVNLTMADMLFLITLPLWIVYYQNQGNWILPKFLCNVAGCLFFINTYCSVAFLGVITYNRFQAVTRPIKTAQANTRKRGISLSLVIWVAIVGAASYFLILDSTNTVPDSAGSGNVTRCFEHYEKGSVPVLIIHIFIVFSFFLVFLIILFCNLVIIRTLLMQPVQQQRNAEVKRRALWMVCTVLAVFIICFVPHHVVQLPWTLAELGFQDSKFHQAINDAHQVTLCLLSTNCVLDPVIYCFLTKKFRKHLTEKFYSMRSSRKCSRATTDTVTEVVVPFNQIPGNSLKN
`CC(C)(C)[C@@]12C[C@H]3OC(=O)[C@@]4(C[C@@H](Cl)[C@H](Cl)C34C13COC(=O)[C@H]3O)O2` (stereo partly drawn) yielded a Binding affinity of 1.1 µM.

`CO[C@H]1C[C@@]23[C@@H](O1)O[C@@]14CC=CC21[C@@H](C[C@H]3C(C)(C)C)OC4=O` (stereo partly drawn) had a Binding affinity of 120 µM.

As for `CC(C)(C)[C@@]12C[C@H]3OC(=O)[C@@]4(CCCC34C13COC(=O)[C@H]3O)O2` (stereo partly drawn), the Binding affinity worked out at 13 µM.

The molecule `C[C@@H]1C(=O)O[C@H]2CC34[C@H]5C[C@@H](C(C)(C)C)C36[C@@H](OC(=O)[C@@H]6O)O[C@@]4(C(=O)O5)[C@]21O` (stereo partly drawn) showed a Binding affinity of 17.8 µM.

Consider `COCO[C@@H]1C(=O)OCC12C13[C@H]4C[C@@]2(C(C)(C)C)O[C@]1(C[C@@H](Cl)[C@@H]3OCOC)C(=O)O4` (stereo partly drawn), for which the Binding affinity was 0.3 µM.

Consider `C[C@@H]1C(=O)O[C@H]2[C@H](O)C34[C@@H]5OC(=O)[C@]3(O[C@@H]3OC(=O)[C@H](O)C34[C@H](C(C)(C)C)[C@H]5O)[C@@]12O` (stereo partly drawn), for which the Binding affinity turned out to be 17 µM.

Consider `CC(C)(C)[C@@H]1C[C@H]2OC(=O)[C@@]34CC5OC6C[C@@]1([C@@H](O6)O3)[C@@]24C5Br` (stereo partly drawn), for which the Binding affinity amounted to 2.9 µM.

In turn, `CC(C)(C)[C@@]12C[C@H]3OC(=O)[C@@]4(C[C@@H](Cl)CC34C13COC(=O)[C@H]3O)O2` (stereo partly drawn) showed a Binding affinity of 1.1 µM.

On to `CC(C)(C)[C@@]12C[C@H]3OC(=O)[C@@]4(CCCC34C13COC(=O)C3=O)O2` (stereo partly drawn), for which the Binding affinity was 18 µM.

On to `CC(C)(C)[C@@H]1C[C@H]2OC(=O)[C@]34CC=CC23[C@]12CC(=O)O[C@H]2O4` (stereo partly drawn), for which the Binding affinity was found to be 80 µM.

`COCO[C@@H]1C(=O)OCC12C13[C@H]4C[C@@]2(C(C)(C)C)O[C@]1(C[C@@H](Cl)[C@@H]3Cl)C(=O)O4` (stereo partly drawn) registered a Binding affinity of 0.3 µM.

The molecule `CC(C)(C)[C@]12C[C@H]3OC(=O)[C@@]4(CCCC34[C@@]13COC(=O)[C@@H]3O)O2` showed a Binding affinity of 76 µM.

`C[C@@H]1C(=O)O[C@H]2[C@H](O)[C@@]34[C@H]5C[C@@H](C(C)(C)C)[C@]36[C@@H](OC(=O)[C@@H]6O)O[C@@]4(C(=O)O5)[C@@]12O` [GINKOLIDE B] gave a Binding affinity of 0.6 µM.

Take `CC1(C)C[C@@]2(O)C(=O)O[C@H]3O[C@@]45CCCC46[C@@H](C[C@@H]1C362)OC5=O` (stereo partly drawn): the Binding affinity was determined as 9.2 µM.

Take `COCO[C@@H]1C(=O)O[C@H]2O[C@@]34C[C@@H](Br)[C@H](OCOC)C35[C@@H](C[C@@H](C(C)(C)C)C215)OC4=O` (stereo partly drawn): the Binding affinity was found to be 0.6 µM.

The molecule `COCO[C@@H]1C(=O)O[C@H]2O[C@@]34CCCC35[C@@H](C[C@@H](C(C)(C)C)[C@@]215)OC4=O` (stereo partly drawn) came in with a Binding affinity of 21 µM.

`CC(C)(C)[C@@H]1C[C@H]2OC(=O)[C@]34C[C@@H](Cl)[C@H](Cl)C23[C@@]12[C@@H](OC(=O)[C@@H]2O)O4` (stereo partly drawn) registered a Binding affinity of 1.3 µM.

On to `C[C@@H]1C(=O)O[C@H]2CC34[C@@H]5OC(=O)[C@]3(O[C@@H]3OC(=O)[C@H](O)C34[C@H](C(C)(C)C)[C@H]5O)[C@]21O` (stereo partly drawn), for which the Binding affinity stood at 130 µM.

In turn, `CC(=O)O[C@@H]1C(=O)O[C@H]2O[C@@]34CCCC35[C@@H](C[C@@H](C(C)(C)C)C215)OC4=O` (stereo partly drawn) yielded a Binding affinity of 11 µM.

Consider `CC(=O)O[C@H]1C(=O)OC[C@@]12C13CCC[C@]14O[C@@]2(C(C)(C)C)C[C@H]3OC4=O`, for which the Binding affinity turned out to be 13 µM.

`COCO[C@H]1C(=O)OC[C@@]12C13CCC[C@]14O[C@@]2(C(C)(C)C)C[C@H]3OC4=O` showed a Binding affinity of 9.4 µM.

With `CC(C)(C)[C@]12C[C@H]3OC(=O)[C@@]4(C[C@@H](Cl)[C@H](Cl)C34[C@@]13COC(=O)[C@@H]3O)O2`, the Binding affinity is 38 µM.

For `C[C@@H]1C(=O)O[C@H]2CC34[C@H]5C[C@@H](C(C)(C)C)C36C(=O)C(=O)O[C@H]6O[C@@]4(C(=O)O5)[C@]21O` (stereo partly drawn), the Binding affinity amounted to 3.9 µM.

Take `C[C@@H]1C(=O)O[C@H]2[C@H](O)C34[C@H]5C[C@H]6C(C)(C)C[C@@]7(O)C(=O)O[C@@H](O[C@@]3(C(=O)O5)[C@@]12O)C647` (stereo partly drawn): the Binding affinity was 0.7 µM.

The target of another assay is T1, Platelet-activating factor receptor. As to the kind of experiment: Compound was evaluated for anti-platelet activating factor potency.
As for `C[C@@H]1C(=O)O[C@H]2[C@H](OCOCc3ccccc3)C34[C@H]5C[C@@H](C(C)(C)C)[C@]36[C@@H](OC(=O)[C@@H]6O)O[C@@]4(C(=O)O5)[C@@]12O` (stereo partly drawn), inhibition was half-maximal at 58.8 nM (IC50).

In the case of `C[C@@H]1C(=O)O[C@H]2[C@H](OCc3ccc(Cl)cc3)C34[C@H]5C[C@@H](C(C)(C)C)[C@]36[C@@H](OC(=O)[C@@H]6O)O[C@@]4(C(=O)O5)[C@@]12O` (stereo partly drawn), half-maximal inhibition (IC50) required 28.9 nM.

Regarding `C[C@@H]1C(=O)O[C@H]2[C@H](O)[C@@]34[C@H]5C[C@@H](C(C)(C)C)[C@]36[C@@H](OC(=O)[C@@H]6O)O[C@@]4(C(=O)O5)[C@@]12O` [GINKOLIDE B], the IC50 (commonly the midpoint of a concentration-inhibition curve) came out at 128 nM.

For `CC1C(=O)O[C@H]2[C@H](O)C34[C@H]5C[C@@H](C(C)(C)C)[C@]36[C@@H](OC(=O)[C@@H]6OCOCc3ccccc3)O[C@@]4(C(=O)O5)[C@@]12O` (stereo partly drawn), the IC50 was 40.4 nM.

The record behind these values is ChEMBL document CHEMBL1130997, “A 3D-QSAR study on ginkgolides and their analogues with comparative molecular field analysis” (Bioorg Med Chem Lett, 1998).
